{"source": "patent US6720324B2", "about": "“Selective melanin concentrating hormone-1 (MCH1) receptor antagonists and uses thereof” (Synaptic Pharmaceutical Corporation, priority 2000, dated 2004)", "key": {"human MCH1 receptor": {"molecular_target": "human MCH1 receptor (Homo sapiens, UniProt Q99705)", "sequence (Q99705 whole entry)": "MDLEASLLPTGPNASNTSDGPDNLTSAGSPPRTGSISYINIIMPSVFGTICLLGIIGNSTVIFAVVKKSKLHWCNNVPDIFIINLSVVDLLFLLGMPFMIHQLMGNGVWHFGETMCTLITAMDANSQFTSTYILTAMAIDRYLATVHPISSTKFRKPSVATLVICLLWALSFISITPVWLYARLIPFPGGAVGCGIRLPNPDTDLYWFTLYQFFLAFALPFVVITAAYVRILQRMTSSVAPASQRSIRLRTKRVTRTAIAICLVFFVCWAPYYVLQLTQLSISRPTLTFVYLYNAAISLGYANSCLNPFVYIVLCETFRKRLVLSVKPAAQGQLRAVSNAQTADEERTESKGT", "assay": "Functional assay: intracellular calcium mobilization (antagonist potency Kb)", "format": "cell-based", "parameters": "expressed in transfected cells; host or cells: COS-7 cells, transient, DEAE-dextran, plasmid pEXJ.HR-TL231 (ATCC 203197)", "experimental": "Intracellular calcium mobilization assays for the MCH1 receptor were carried out using plasmid pEXJ.HR-TL231 (ATCC Accession No. 203197). COS-7 cells were transiently transfected with DNA encoding the MCH1 receptor utilizing the DEAE-dextran method as described above. The intracellular free calcium concentration was measured by fluorescent imaging using the calcium sensitive fluorscent dye Fluo-3. COS-7 cells expressing the human MCH1 receptor were seeded onto sterile 96 well plates, washed with Hank's balanced salt solution (HBSS), containing 20 mM HEPES, 2.5 mM probenecid, and 0.1% BSA, and loaded with the same buffer containing 3.8 μM Fluo-3 for 1 hour at 37° C. After washing with HBSS to remove the fluo-3 solution, cells were equilibrated for 10 minutes."}, "[1]": {"settings": "Table 1, cloned human MCH1 receptor, functional assay, read-out: Kb (nM) hMCH1"}, "[2]": {"settings": "read-out: hMCH1 Kb, Table 3, antagonist potency at the human MCH1 receptor"}, "[3]": {"settings": "Table 2, antagonist potency at the human MCH1 receptor, read-out: hMCH1 Kb"}, "[4]": {"settings": "Table 3, antagonist potency at the human MCH1 receptor, read-out: hMCH1 Kb"}}, "note": "Counter-ions that a name gives are not always drawn. Like-named read-outs stand apart in the source and are kept apart here."}
{"compound": "COC(=O)C1=C(C)NC(=O)N(C(=O)NCCCN2CCC(c3ccccc3)CC2)C1c1ccc2nonc2c1", "note": "(stereo not shown) [Example 8, 6-(BENZOFURAZAN-5-YL)-1,2,3,6-TETRAHYDRO-5-METHOXYCARBONYL-4-METHYL-2-OXO-1-{N-[3-(4-PHENYLPIPERIDIN-1-YL)PROPYL]}CARBOXAMIDO-PYRIMIDINE]", "values": [{"measurement": "Kb", "setting": "human MCH1 receptor; [1]", "result": 88, "unit": "nM"}]}
{"compound": "COC(=O)C1=C(C)NC(=O)N(C(=O)NCCCN2CCC3(CCc4ccccc43)CC2)C1c1ccc2nonc2c1", "note": "(racemic) [Example 21]", "values": [{"measurement": "Kb", "setting": "human MCH1 receptor; [1]", "result": 28, "unit": "nM"}]}
{"compound": "O=[N+]([O-])c1ccccc1S(=O)(=O)n1nnc2ccccc21", "note": "[Example 31, 1H-1,2,3-BENZOTRIAZOL-1-YL (2-NITROPHENYL) SULFONE]", "values": [{"measurement": "Kb", "setting": "human MCH1 receptor; [1]", "result": 7, "unit": "nM"}]}
{"compound": "COC(=O)C1=C(C)NC(=O)N(C(=O)NCCCN2CCC3(CC2)OCc2ccccc23)C1c1ccc(F)c(F)c1", "note": "(stereo not shown) [Example 20, 4-(3,4-DIFLUORPHENYL)-6-METHYL-2-OXO-3-{[3-(4-SPIRO[ISOBENZO-FURAN-1(3H),4′-PIPERIDINE]PROPYL}-1,2,3,4-TETRAHYDROPYRIMIDINE-5-CARBOXYLIC ACID METHYL ESTER]", "values": [{"measurement": "Kb", "setting": "human MCH1 receptor", "result": 5, "unit": "nM"}, {"measurement": "Kb", "setting": "human MCH1 receptor; read-out: Kb (nM) hMCH1, Table 1, cloned human MCH1 receptor, functional assay", "result": 5, "unit": "nM"}, {"measurement": "Kb", "setting": "human MCH1 receptor; [2]", "result": 5, "unit": "nM"}]}
{"compound": "COCC1=C(C(=O)OC)C(c2ccc(F)c(F)c2)N(C(=O)NCCCN2CCC(OC(C)=O)(c3ccccc3)CC2)C(=O)N1", "note": "(stereo not shown) [Example 3, (1)-1,2,3,6-TETRAHYDRO-1-{N-[3-(4-O-ACETYL)-4-PHENYLPIPERIDIN-1-YL]PROPYL}CARBOXAMIDO-5-METHOXYCARBONYL-4-METHOXYMETHYL-6-(3,4-DIFLUOROPHENYL)-2-OXOPYRIMIDINE]", "values": [{"measurement": "Kb", "setting": "human MCH1 receptor", "result": 201, "unit": "nM"}]}
{"compound": "COCC1=C(C(=O)OC)C(c2ccc(F)c(F)c2)N(C(=O)NCCCN2CC=C(c3cccc(NC(C)=O)c3)CC2)C(=O)N1", "note": "(stereo not shown) [Example 2, METHYL 3-[(3-4-[3-(ACETYLAMINO)PHENYL]-1,2,3,6-TETRAHYDRO-1-PYR-IDINYLPROPYL)AMINO]CARBONYL-4-(3,4-DIFLUOROPHENYL)-6-(METHOXY-METHYL)-2-OXO-1,2,3,4-TETRAHYDRO-5-PYRIMIDINECARBOXYLATE]", "values": [{"measurement": "Kb", "setting": "human MCH1 receptor; [1]", "result": 18, "unit": "nM"}, {"measurement": "Kb", "setting": "human MCH1 receptor; [3]", "result": 18, "unit": "nM"}, {"measurement": "Kb", "setting": "human MCH1 receptor; [4]", "result": 18, "unit": "nM"}]}
{"compound": "COC(=O)C1=C(C)NC(=O)N(C(=O)NCCCN2CCN(c3ccccc3C)CC2)C1c1ccc(F)c(F)c1", "note": "(stereo not shown) [Example 35, 1,2,3,6-TETRAHYDRO-1{N-[4-(2′-METHYL-PHENYL)PIPERAZIN-1-YL]-PROPYL}-CARBOXAMIDO-4-METHYL-6-(3,4-DIFLUOROPHENYL)-2-OXO-PYRIMIDINE]", "values": [{"measurement": "Kb", "setting": "human MCH1 receptor; [1]", "result": 276, "unit": "nM"}]}
{"compound": "COC(=O)C1=C(C)NC(=O)N(C(=O)NCCCN2CCN(c3ccccc3[N+](=O)[O-])C[C@@H]2C)C1c1ccc(F)c(F)c1", "note": "(single isomer, unassigned; (+)) [Example 34]", "values": [{"measurement": "Kb", "setting": "human MCH1 receptor; [1]", "result": 182, "unit": "nM"}]}
{"compound": "O=C(CCCN1CCC(O)(c2ccc(Cl)cc2)CC1)c1ccc(Cl)cc1", "note": "[Example 29]", "values": [{"measurement": "Kb", "setting": "human MCH1 receptor", "result": 9, "unit": "nM"}, {"measurement": "Kb", "setting": "human MCH1 receptor; read-out: hMCH1 Kb, Table 2, antagonist potency at the human MCH1 receptor", "result": 9, "unit": "nM"}, {"measurement": "Kb", "setting": "human MCH1 receptor; [2]", "result": 9, "unit": "nM"}]}
{"compound": "(1)-1,2,3,6-TETRAHYDRO-1-{N-[4-(3,4-DIHYDRO-2-OXOSPIRONAPHTHALENE-1(2H))-PIPERIDINE-1-YL]PROPYL}CARBOXAMIDO-5-METHOXYCARBONYL-2-OXO-6-(3,4-BENZOFURAZAN)-4-METHYLPYRIMIDINE HYDROCHLORIDE [Example 23]", "values": [{"measurement": "Kb", "setting": "human MCH1 receptor; [1]", "result": 68, "unit": "nM"}]}
{"compound": "COC(=O)C1=C(C)NC(=O)N(C(=O)NCCCN2CCN(c3ccccc3C)CC2)C1c1ccc(F)c(F)c1", "note": "(stereo not shown) (as salt: hydrochloride) [Example 35, 1,2,3,6-TETRAHYDRO-1{N-[4-(2′-METHYL-PHENYL)PIPERAZIN-1-YL]-PROPYL}-CARBOXAMIDO-4-METHYL-6-(3,4-DIFLUOROPHENYL)-2-OXO-PYRIMIDINE]", "values": [{"measurement": "melting point", "result": "66 to 71", "unit": "°C"}]}
{"compound": "CCCCN(CCCC)c1ccc(CNC[C@H]2CC[C@H](NC(=O)c3cccc4ccccc34)CC2)cc1", "note": "[Example 13, N1-[4-([4-(DIBUTYLAMINO)BENZYL]AMINOMETHYL)CYCLOHEXYL]-1-NAPHTH-AMIDE]", "values": [{"measurement": "Kb", "setting": "human MCH1 receptor; [1]", "result": 284, "unit": "nM"}, {"measurement": "Kb", "setting": "human MCH1 receptor; [3]", "result": 284, "unit": "nM"}, {"measurement": "Kb", "setting": "human MCH1 receptor; [4]", "result": 284, "unit": "nM"}]}
{"compound": "COC(=O)C1=C(C)NC(=O)N(C(=O)NCCCN2CCC3(CC2)OCc2ccccc23)C1c1ccc2nonc2c1", "note": "(single isomer, unassigned) (as salt: hydrochloride) [Example 18]", "values": [{"measurement": "melting point", "result": "180 to 182", "unit": "°C"}]}
{"compound": "COC(=O)C1=C(C)NC(=O)N(C(=O)NCCCN2CCN(c3ccccc3[N+](=O)[O-])C[C@@H]2C)C1c1ccc(F)c(F)c1", "note": "(single isomer, unassigned; (+)) (as salt: HCl) [Example 34]", "values": [{"measurement": "melting point", "result": "150 to 153", "unit": "°C"}]}
{"compound": "COCC1=C(C(=O)OC)C(c2ccc(F)c(F)c2)N(C(=O)NCCCN2CCC(c3cccc4ccccc34)CC2)C(=O)N1", "note": "(single isomer, unassigned; (+)) [Example 14, (+)-1,2,3,6-TETRAHYDRO-1-{N-[4-(1-NAPHTHYL)-PIPERIDIN-1-YL]PROP-YL}CARBOXAMIDO-4-METHOXYMETHYL-6-(3,4-DIFLUOROPHENYL)-2-OXO-PYRIMIDINE-5-CARBOXYLIC ACID METHYL ESTER]", "values": [{"measurement": "melting point", "result": "168 to 172", "unit": "°C"}]}
{"compound": "COC(=O)C1=C(C)NC(=O)N(C(=O)NCCCN2CCC(c3ccccc3)CC2)C1c1ccc(F)c(F)c1", "note": "(stereo not shown) [Example 11, 6-(3,4-DIFLOUROPHENYL)-1,2,3,6-TETRAHYDRO-5-METHOXYCARBONYL-4-METHYL-2-OXO-1-{N-[3-(4-PHENYLPIPERIDIN-1-YL) PROPYL]}CARBOXAMIDO-PYRIMIDINE]", "values": [{"measurement": "Kb", "setting": "human MCH1 receptor; [1]", "result": 331, "unit": "nM"}]}
{"compound": "O=C(CCCN1CCC(NC(=O)c2ccccc2)CC1)c1ccc(Cl)cc1", "note": "(as salt: HCl) [Example 28, 1-[3-(4-CHLOROBENZOYL)]PROPYL-4-BENZAMIDOPIPERIDINE]", "values": [{"measurement": "melting point", "result": "243 to 244", "unit": "°C"}]}
{"compound": "Fc1ccc(C(c2ccc(F)cc2)N2CCN(C/C=C/c3ccccc3)CC2)cc1", "note": "[Example 26, 1-[BIS(4-FLUOROPHENYL)METHYL]-4-(3-PHENYL-2-PROPENYL)PIPERAZINE]", "values": [{"measurement": "Kb", "setting": "human MCH1 receptor; [1]", "result": 260, "unit": "nM"}, {"measurement": "Kb", "setting": "human MCH1 receptor; [3]", "result": 260, "unit": "nM"}]}
{"compound": "(1)-1,2,3,6-TETRAHYDRO-1-{N-[4-(3,4-DIHYDRO-2-OXOSPIRONAPHTHALENE-1(2H))-PIPERIDINE-1-YL]PROPYL}CARBOXAMIDO-5-METHOXY-CARBONYL-2-OXO-6-(3,4-DIFLUOROPHENYL)-4-METHYL-PYRIMIDINE [Example 24]", "values": [{"measurement": "Kb", "setting": "human MCH1 receptor; [1]", "result": 102, "unit": "nM"}]}
{"compound": "Cc1cc(O)cc(O)c1/C=N/c1ccc(-c2cn3ccccc3n2)cc1", "note": "[Example 27]", "values": [{"measurement": "Kb", "setting": "human MCH1 receptor; [1]", "result": 279, "unit": "nM"}, {"measurement": "Kb", "setting": "human MCH1 receptor; [3]", "result": 279, "unit": "nM"}]}
{"compound": "COCC1=C(C(=O)OC)C(c2ccc(F)c(F)c2)N(C(=O)NCCCN2CCC(OC(C)=O)(c3ccccc3)CC2)C(=O)N1", "note": "(stereo not shown) (as salt: hydrochloride) [Example 3, (1)-1,2,3,6-TETRAHYDRO-1-{N-[3-(4-O-ACETYL)-4-PHENYLPIPERIDIN-1-YL]PROPYL}CARBOXAMIDO-5-METHOXYCARBONYL-4-METHOXYMETHYL-6-(3,4-DIFLUOROPHENYL)-2-OXOPYRIMIDINE]", "values": [{"measurement": "melting point", "result": "82 to 84", "unit": "°C"}]}
{"compound": "CN1CN(c2ccccc2)C2(CCN(CCCC(=O)c3ccc(F)cc3)CC2)C1=O", "note": "[Example 30, N-METHYL-8-[4-(4-FLUOROPHENYL)-4-OXOBUTYL]-1-PHENYL-1,3,8-TRI-AZASPIRO-[4.5]DECAN-4-ONE]", "values": [{"measurement": "Kb", "setting": "human MCH1 receptor; [1]", "result": 479, "unit": "nM"}, {"measurement": "Kb", "setting": "human MCH1 receptor; [3]", "result": 479, "unit": "nM"}]}
{"compound": "CCCCN(CCCC)c1ccc(CN2CCC(CNC(=O)N3C(=O)NC(C)=C(C(=O)OC)C3c3ccc4nonc4c3)CC2)cc1", "note": "(stereo not shown) [Example 6]", "values": [{"measurement": "Kb", "setting": "human MCH1 receptor; [1]", "result": 42, "unit": "nM"}, {"measurement": "Kb", "setting": "human MCH1 receptor; [3]", "result": 42, "unit": "nM"}, {"measurement": "Kb", "setting": "human MCH1 receptor; [4]", "result": 42, "unit": "nM"}]}
{"compound": "COC(=O)C1=C(C)NC(=O)N(C(=O)NCCCN2CCC3(CC2)OCc2ccccc23)C1c1ccc(F)c(F)c1", "note": "(stereo not shown) (as salt: hydrochloride) [Example 20, 4-(3,4-DIFLUORPHENYL)-6-METHYL-2-OXO-3-{[3-(4-SPIRO[ISOBENZO-FURAN-1(3H),4′-PIPERIDINE]PROPYL}-1,2,3,4-TETRAHYDROPYRIMIDINE-5-CARBOXYLIC ACID METHYL ESTER]", "values": [{"measurement": "melting point", "result": "178 to 182", "unit": "°C"}]}
